In patent US12110287B2, “Heterocyclic derivatives as Nav1.7 and Nav1.8 blockers” (RaQualia Pharma Inc., priority 2018, dated 2024) one finds IC50 data, which are given here for one compound.

What all share (format): cell-based
One assay concerns the target T1, human Nav1.8 channels (Homo sapiens, UniProt Q9Y5Y9).
T1 construct: expressed in transfected cells; host or cells: HEK293 cells
Briefly: FRET assay (FDSS membrane potential). As to conditions: HEK293 cells expressing human Nav1.8 channels, read-out: IC50 against Nav1.8. The method, then:
(§1) This screen is used to determine the effects of compounds on human Nav1.8, and human Nav1.5 channels, utilizing the cell imaging technology by Hamamatsu Photonics's Functional Drug Screening System (FDSS). The changes of membrane potential are monitored with fluorescent membrane potential dye pair, DiSBAC2(3) and CC2-DMPE, using FRET technology.
(§2) HEK293 cells expressing human Nav1.8 channels or human Nav1.5 channels are grown in T225 flasks, in a 5% CO2 humidified incubator to about 80% confluence. […]
(§3) The data is analyzed and reported as normalized ratios of intensities measured in the 465 nm and 575 nm channels. The process of calculating these ratios is performed as follows: FR=(FI465 Max/FI575 Min)−(FI465B/FI575B) [Math.2] • “FR”=fluorescence ratio • “FI465B”=the mean of fluorescence intensity as baseline (before Na^+ ligand addition) at 465 nm • “FI575B”=the mean of fluorescence intensity as baseline (before Na^+ ligand addition) at 575 nm • “FI465Max”=maximum fluorescence intensity at 465 nm after Na^+ stimulation • “FI575Min”=minimum fluorescence intensity at 575 nm after Na^+ stimulation Inhibition (%)=100−(FR of each well)−(median FR in positive controls)/(median FR in negative controls)−(median FR in positive controls)×100 [Math.3] […]

In a further assay the target is T2, human Nav1.5 channels (Homo sapiens, UniProt Q14524).
T2 construct: expressed in transfected cells; host or cells: HEK293 cells
Briefly: FRET assay (FDSS membrane potential). Conditions: HEK293 cells expressing human Nav1.5 channels, read-out: activity (IC50) against Nav1.5. Here is the method: as §1, §2, §3

For the next assay, the target named is Nav1.7 (Homo sapiens, UniProt Q15858). Briefly: EFS-FRET assay. More on the design: expressed in transfected cells; host or cells: CHO (Chinese hamster ovary) cells. As to conditions: CHO cells expressing human Nav1.7 channels, read-out: IC50 against Nav1.7. Here is the method: This screen is used to determine the effects of compounds on human Nav1.7 channels, utilizing electrical field stimulation (EFS) system in 96-well plate format on FDSS (Hamamatsu Photonics) platform. The changes of membrane potential are monitored with FRET dye pair, DiSBAC2(3) and PTS18.
CHO (Chinese hamster ovary) cells expressing human Nav1.7 channels are grown in T225 flasks, in a 5% CO2 humidified incubator to about 80% confluence. Media composition consists of HAM/F12 with Glutamax I, 10% FCS, 100 units/mF penicillin and 100 microgram/mF hygromycin.
• Seed each cell lines (1×10^5 cells/well) into 96-well plates prior to experimentation. • Incubate at 37° C. in 5% CO2 for 24 hours. • Wash each well with assay buffer (140 mM NaCl, 4.5 mM KCl, 10 mM D-Glucose, 2 mM CaCl2, 1 mM MgCl2, 10 mM HEPES, pH 7.4 adjusted with NaOH) twice. • Add 1st loading solution containing 10 microM PTS18 and 0.06% Pluronic F-127 in assay buffer. • Incubate the plate at rt in dark for 1 hour. • Remove 1st loading solution and add 2nd loading solution containing 12.5 microM DiSBAC2(3), 1.25 mM Xylene Fast Yellow and 0.0075% Pluronic F-127 in assay buffer. • Place the plate under the dark at rt for 25 minutes. • Add compound solutions into the assay plate. • Set the assay plate in FDSS and place an EFS device on the plate. • Measure EFS-induced fluorescent response by FDSS.
The data are analyzed and reported as normalized ratios of intensities measured at […]. The process of calculating these ratios is performed as follows:
This analysis is performed using a computerized specific program designed for FDSS generated data. Fluorescence ratio values are plotted using XLfit to determine an IC50 value for each compound.

T1 sequence (Q9Y5Y9 whole entry): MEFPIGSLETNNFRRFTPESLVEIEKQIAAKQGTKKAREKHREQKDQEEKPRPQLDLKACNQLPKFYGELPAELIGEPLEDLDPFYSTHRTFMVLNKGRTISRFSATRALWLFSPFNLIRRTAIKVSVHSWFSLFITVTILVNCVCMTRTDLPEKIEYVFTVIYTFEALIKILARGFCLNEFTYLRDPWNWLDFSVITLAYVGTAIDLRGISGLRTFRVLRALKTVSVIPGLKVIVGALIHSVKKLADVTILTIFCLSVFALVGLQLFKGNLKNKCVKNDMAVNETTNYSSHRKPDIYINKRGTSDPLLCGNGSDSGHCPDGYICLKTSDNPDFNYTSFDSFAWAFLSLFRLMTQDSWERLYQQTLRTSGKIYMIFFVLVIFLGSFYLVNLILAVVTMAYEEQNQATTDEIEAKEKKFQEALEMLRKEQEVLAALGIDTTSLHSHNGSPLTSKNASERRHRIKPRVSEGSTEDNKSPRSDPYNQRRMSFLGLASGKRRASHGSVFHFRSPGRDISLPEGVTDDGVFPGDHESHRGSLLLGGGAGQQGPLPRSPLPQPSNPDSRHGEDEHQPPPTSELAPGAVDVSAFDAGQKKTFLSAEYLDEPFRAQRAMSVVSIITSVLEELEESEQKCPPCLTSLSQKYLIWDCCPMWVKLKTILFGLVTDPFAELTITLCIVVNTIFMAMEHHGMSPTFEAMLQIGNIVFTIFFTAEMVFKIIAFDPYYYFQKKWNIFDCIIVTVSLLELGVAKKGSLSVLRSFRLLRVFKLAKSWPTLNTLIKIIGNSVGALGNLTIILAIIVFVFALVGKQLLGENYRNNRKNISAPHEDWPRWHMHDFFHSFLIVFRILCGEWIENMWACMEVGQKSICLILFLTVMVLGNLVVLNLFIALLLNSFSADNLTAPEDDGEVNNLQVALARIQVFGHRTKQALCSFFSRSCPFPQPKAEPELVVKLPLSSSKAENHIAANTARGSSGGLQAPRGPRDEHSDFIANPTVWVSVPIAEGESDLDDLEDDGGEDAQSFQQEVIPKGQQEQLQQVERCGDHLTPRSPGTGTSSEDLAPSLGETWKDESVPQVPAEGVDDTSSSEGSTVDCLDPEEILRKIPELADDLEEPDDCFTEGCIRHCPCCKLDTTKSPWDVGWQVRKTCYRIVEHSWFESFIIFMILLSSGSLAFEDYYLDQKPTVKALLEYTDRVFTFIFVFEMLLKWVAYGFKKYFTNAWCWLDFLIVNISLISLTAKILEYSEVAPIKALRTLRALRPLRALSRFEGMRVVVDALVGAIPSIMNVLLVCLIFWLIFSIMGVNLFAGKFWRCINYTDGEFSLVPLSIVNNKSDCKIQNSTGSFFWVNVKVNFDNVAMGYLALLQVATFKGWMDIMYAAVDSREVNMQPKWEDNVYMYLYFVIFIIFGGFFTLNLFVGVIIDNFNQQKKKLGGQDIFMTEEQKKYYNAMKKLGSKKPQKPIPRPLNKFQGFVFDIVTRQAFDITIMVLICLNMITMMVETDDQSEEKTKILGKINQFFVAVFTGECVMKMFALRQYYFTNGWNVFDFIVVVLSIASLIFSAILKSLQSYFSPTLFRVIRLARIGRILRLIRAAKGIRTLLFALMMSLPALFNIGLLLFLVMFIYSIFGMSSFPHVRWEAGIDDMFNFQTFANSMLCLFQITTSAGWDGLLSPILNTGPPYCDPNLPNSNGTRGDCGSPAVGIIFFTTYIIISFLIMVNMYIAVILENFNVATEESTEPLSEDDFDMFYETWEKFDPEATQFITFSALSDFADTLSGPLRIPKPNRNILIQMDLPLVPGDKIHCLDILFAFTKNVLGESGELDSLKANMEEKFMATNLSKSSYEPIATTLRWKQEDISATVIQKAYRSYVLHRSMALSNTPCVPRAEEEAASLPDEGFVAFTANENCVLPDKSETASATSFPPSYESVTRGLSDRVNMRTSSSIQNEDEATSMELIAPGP
T2 sequence (Q14524 whole entry): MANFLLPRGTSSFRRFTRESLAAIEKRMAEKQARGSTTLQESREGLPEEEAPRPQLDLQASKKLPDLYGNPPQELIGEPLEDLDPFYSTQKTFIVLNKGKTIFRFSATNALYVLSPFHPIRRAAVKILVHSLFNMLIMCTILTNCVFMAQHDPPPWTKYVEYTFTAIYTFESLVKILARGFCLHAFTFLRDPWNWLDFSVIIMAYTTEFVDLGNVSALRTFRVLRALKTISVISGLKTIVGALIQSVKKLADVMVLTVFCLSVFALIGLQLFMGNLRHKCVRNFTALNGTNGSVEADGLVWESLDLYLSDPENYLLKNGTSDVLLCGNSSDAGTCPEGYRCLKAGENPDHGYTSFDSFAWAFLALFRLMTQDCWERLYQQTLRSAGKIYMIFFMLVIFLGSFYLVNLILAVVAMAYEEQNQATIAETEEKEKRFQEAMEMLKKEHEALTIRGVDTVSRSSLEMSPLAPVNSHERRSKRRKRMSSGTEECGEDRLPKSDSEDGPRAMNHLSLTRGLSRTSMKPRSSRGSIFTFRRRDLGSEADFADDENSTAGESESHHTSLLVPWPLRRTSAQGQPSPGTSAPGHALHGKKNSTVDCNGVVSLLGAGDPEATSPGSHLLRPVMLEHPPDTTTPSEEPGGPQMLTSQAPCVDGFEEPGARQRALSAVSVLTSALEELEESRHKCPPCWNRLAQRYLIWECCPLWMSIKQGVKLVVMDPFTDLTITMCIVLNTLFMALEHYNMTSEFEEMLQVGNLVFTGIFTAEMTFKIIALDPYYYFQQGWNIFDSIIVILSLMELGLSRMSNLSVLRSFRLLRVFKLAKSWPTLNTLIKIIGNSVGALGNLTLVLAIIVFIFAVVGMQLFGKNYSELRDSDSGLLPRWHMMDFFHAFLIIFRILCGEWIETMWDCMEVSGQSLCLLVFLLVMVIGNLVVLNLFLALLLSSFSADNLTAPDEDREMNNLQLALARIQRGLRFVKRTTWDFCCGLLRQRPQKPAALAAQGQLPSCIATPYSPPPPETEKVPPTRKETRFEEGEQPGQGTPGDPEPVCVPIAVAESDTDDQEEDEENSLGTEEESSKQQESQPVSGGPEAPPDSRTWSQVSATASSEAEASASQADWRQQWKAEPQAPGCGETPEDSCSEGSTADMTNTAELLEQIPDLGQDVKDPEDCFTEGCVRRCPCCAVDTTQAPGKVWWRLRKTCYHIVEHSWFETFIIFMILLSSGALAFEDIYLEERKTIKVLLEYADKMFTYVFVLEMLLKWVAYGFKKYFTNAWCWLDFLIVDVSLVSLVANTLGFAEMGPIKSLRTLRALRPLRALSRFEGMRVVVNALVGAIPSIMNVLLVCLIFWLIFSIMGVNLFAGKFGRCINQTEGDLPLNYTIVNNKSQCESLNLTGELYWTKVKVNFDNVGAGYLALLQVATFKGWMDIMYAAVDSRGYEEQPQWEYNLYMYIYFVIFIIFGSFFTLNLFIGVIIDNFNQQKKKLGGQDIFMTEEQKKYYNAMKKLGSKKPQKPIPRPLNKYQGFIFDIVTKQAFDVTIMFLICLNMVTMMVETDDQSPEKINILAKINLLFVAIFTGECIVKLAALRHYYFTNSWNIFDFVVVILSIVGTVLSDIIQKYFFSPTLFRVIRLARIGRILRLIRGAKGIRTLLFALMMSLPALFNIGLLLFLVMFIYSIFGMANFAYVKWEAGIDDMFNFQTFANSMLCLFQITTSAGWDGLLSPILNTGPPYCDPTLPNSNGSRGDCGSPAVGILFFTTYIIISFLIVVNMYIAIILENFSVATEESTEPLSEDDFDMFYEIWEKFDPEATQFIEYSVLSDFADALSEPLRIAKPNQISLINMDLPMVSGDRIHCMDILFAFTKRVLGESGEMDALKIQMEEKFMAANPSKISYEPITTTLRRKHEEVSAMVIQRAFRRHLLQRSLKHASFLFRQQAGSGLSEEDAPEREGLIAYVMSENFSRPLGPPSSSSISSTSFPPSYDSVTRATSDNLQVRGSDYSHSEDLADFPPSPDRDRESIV

`O=C(N[C@@H]1CCCN(c2ncc(C(F)(F)F)cc2Cl)C1)c1ccnc(NC(=O)C2CC2)c1` [Example 7]: the IC50 at human Nav1.8 channels was 2 µM; at human Nav1.5 channels it was over 30 µM; on Nav1.7, under 0.5 µM.
